A short description of series [1]: qEEG mapping. Format: in vivo. The following applies: human. As for the experimental part:
E. Electroencephalography (EEG) Methods: Drug and placebo are administered, for example, at a five-minute intravenous (i.v.) infusion. During 15 minutes following the beginning of the administration EEG is registered. The EEG is registered again at 30, 60, 90, 120, and 180 minutes. Subjects are typically in a quiet laboratory (soundproof and electrically shielded room). During acquisition of EEG measurements subjects recline in an armchair. Usually twenty-eight EEG leads (issued, for example, from a 10-20 system; Jasper, H. H., et al., “Studies of clinical and electrical responses to deep temporal stimulation in men with some considerations of functional anatomy,” Res Publ Assoc Res Nerv Ment Dis. 36:316-34 (1958); Japser, H. H., “Progress and problems in brain research,” J Mt Sinai Hosp N Y. 25(3):244-53 (1958)) are used for recording. An ear linked reference, as well as four artifact channels (detection of eye movement, muscle activity, and other potentials for artifacts) may be used. Silver-plated disc electrodes are attached to subject's scalp, for example, with quick drying collondion. Impedance (for example, of 2000-5000 ohms) is checked before each recording session. A calibration signal is used, before each subject is tested, in order to adjust all the recorded leads thus allowing the construction of EEG or event-related-potentials (ERP) maps. EEGs are taken under resting recording conditions (i.e., subjects are asked to relax with their eyes closed). An example of data analysis used is the method of Dago, et al. (Dago, K T, et al., “Statistical Decision Tree: a tool for studying pharmaco-EEG effects of CNS-active drugs,” Neuropsychobiology, 29(2):91-6 (1994)) which involves a statistical comparison of data obtained during active treatment versus placebo treatment. Typically, topographic mapping of mean EEG parameters and statistical evaluation of treatment effects is carried out in a selected number of healthy volunteers.
EEG profiles are determined for patients dosed intranasally with clonazepam compositions of the present invention. […]

Series [2] is described as follows: In vitro permeation across sheep nasal mucosa, Franz cells. The conditions noted are these: saturated solution, Franz cell, 7 h, FIG. 1.
Experimental: Freshly excised sheep nasal mucosa was used and prepared following a standard protocol. The excised sheep nasal mucosa was cleaned by rinsing with de-ionized water and either used fresh or placed flat over a filter paper and stored frozen until used.
(ii) Dosing and Sample Collection—Franz cell studies: Individually calibrated Franz cells with an average surface area and volume of approximately 0.6 cm^2 and 2 mL, respectively, were employed to determine the permeation characteristics of drug. The nasal sheep mucosa was mounted between the two halves of the Franz cell with the mucosal side facing the donor compartment. The receptor compartment was filled with receiver fluid, stirred constantly with a PTFE-coated magnetic follower driven by a submersible magnetic stirrer bed and maintained at 37° C. in a water bath. Approximately 1 mL (infinite dose) of saturated drug solution was placed into the donor compartment and covered with […] ® (Pechiney Plastic Packaging, Inc., Chicago, Ill.) throughout the study. Following the application of the drug solution, the receiver fluid (200 μL) was removed from the receptor compartment via the sampling arm after sampling times (t=1, 2, 3, 4, 5, 6 and 7 h) and analyzed via HPLC. Each sample removed was replaced by an equal volume of fresh pre-warmed (37° C.) receiver fluid. […]
Series [3] in a line: Solubilities of clonazepam in solvent/water solutions (glycol ether + pH6.8 buffered water, 25° C.). Format: physicochemical. The following applies: Di (ethyleneglycol) diethyl ether, 20% solvent / 80% pH6.8 buffered water. As for the experimental part: The vials were stored at 25° C. for approximately 1 day. Prior to sampling, the vials were centrifuged at 5000 rpm for 2 minutes at 23° C. The results are shown below; neat solvent solubilities from Example 11 are included for reference. Increased water content decreases solubility substantially.

Series [4] is described as follows: Psychomotor, subjective and cognitive tests. Format: in vivo. The following applies: human. The text has this:
D. Neurocognative Tests: The Cognitive Drug Research (CDR) computerized assessment system is specifically designed to evaluate the effects of compounds on the quality of cognitive functioning in subjects and patients in all phases of clinical development. The CDR system is a widely used computerized cognitive assessment system (see, for example, Ebert U, et al., “Pharmacokinetics and pharmacodynamics of scopolamine after subcutaneous administration,” Journal of Clinical Pharmacology 38: 720-726 (1998); Harrington F, et al., “Cognitive Performance in Hypertensive and Normotensive Older Subjects,” Hypertension 36: 1079-1082 (2000); Preece A W, et al., “Effect of a 915-MHz simulated mobile phone signal on cognitive function in man,” International Journal of Radiation Biology 75: 447-456 (1999); and Walker M P, et al., “Quantifying fluctuation in Dementia with Lewy Bodies, Alzheimer's disease and vascular dementia,” Neurology 54: 1616-1625 (2000)) and has been used to evaluate a diverse range of pharmaceutical compounds.
This example describes the pharmacodynamic effects of clonazepam compositions formulated for intranasal administration using neurocognitive tests. A selection of tests from a computerized assessment system of Cognitive Drug Research (“CDR,” Reading, United Kingdom) is employed. The study is typically a double-blind, randomized, placebo-controlled cross-over design. As a control, the group may receive clonazepam intravenous (i.v.) and placebo at selected dosages.
Cognitive function is typically assessed using an attentional task battery to assess attention and a word recognition task to assess secondary memory. […]
Tests may be administered, for example, in the following order: Word Presentation; Simple Reaction Time; Digit Vigilance; Choice Reaction Time; and Word Recognition. […] Summary statistics (m, number; mean; sem, standard error; sd, standard deviation; median; min, minimum; max, maximum; and missing) are typically calculated for each measure at each time point by dose. […]

With `O=C1CN=C(c2ccccc2Cl)c2cc([N+](=O)[O-])ccc2N1` [Clonazepam, 5-(2-chlorophenyl)-1,3-dihydro-7-nitro-2H-1,4-benzodiazepin-2-one], the “EEG changes from baseline” value in series [1] (all three routes) is “increased delta and beta activity and decreased alpha and theta activity”. Besides, the “beta-1 relative power, time course of effects (post-hoc analysis)” value in series [1] (intranasal administration) is reported as “magnitude of effect similar to that from oral administration”. Besides, in series [1] (oral administration), the “time after dosing at which the EEG pattern was noted” value is “approximately 2 hours”. Besides, the “permeation across sheep nasal mucosa” value in series [2] was “at steady state”. The “Solubilities (mg/mL) of Clonazepam in Solvent/Water Solutions” value in series [3] amounted to 0.31 mg/mL. The “time at which effects were first apparent (Leeds Psychomotor Test, Bond and Lader VAS, Karolinska Sleepiness Scale)” value was “approximately 30 minutes” in series [4] (intranasal administration), “approximately 30 minutes” in series [4] (intravenous administration) and “approximately 2 hours” in series [4] (oral administration).

The values are drawn from patent US8716279B2, “Pharmaceutical compositions of clonazepam and method of use thereof” (Jazz Pharmaceuticals, Inc., priority 2006, dated 2014).
